Results on eight compounds are retold here after PubChem BioAssay (NCI).

Where “and” joins values, the source holds several entries; their conditions need not be identical. Identical values can stand only once.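 A five-concentration, 48-hour dose response in 96-well plates underlies each endpoint, interpolated linearly between surrounding concentrations. Abbreviation: GI50, concentration required for 50% inhibition of growth. The concentration for full growth arrest is given as TGI.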 Some results are limits rather than exact numbers.

Common to all, as to test: inhibition of tumour cell growth, NCI panel, 48 h
Assay [1] has as its system BT-549 breast.
Assay [2] concerns CCRF-CEM leukemia.
The test system of assay [3] is COLO 205 colon.
For assay [4], the system named is HOP-92 NSCLC.
Assay [5] concerns OVCAR-8 ovarian.
For assay [6], the system named is SK-MEL-28 melanoma.
The subject of assay [7] is SN12C renal.
Assay [8] concerns SW-620 colon.
Assay [9] concerns T-47D breast.
For assay [10], the system named is UACC-62 melanoma.

Turning to `OCCCCC#Cc1ccccc1C#Cc1ccc(C(F)(F)F)cc1`, the GI50 in assay [1] is 18 µM; in [2], 19.6 µM; in assay [3], 17.4 µM; in assay [4] it was 18 µM; in [5], 17.4 µM; in [6] it was 8.4 µM. The GI50 is 15.8 µM in assay [7], 17 µM in assay [8], 15.9 µM in assay [9] and 16 µM in assay [10]. In addition, the TGI in assay [1] came to 35.1 µM; in assay [2], 44.1 µM; in assay [3], 33 µM; in assay [4], 34.9 µM; in assay [5], 33.2 µM; in assay [6] it was 21.7 µM. Further, the TGI worked out at 29.6 µM in [7], 35.2 µM in assay [8], 33.9 µM in assay [9] and 29.8 µM in assay [10].

On to `COC(=O)[C@H](Cc1cn(C)cn1)NC(=O)[C@@H](NC(=O)Nc1cc(C(F)(F)F)cc(C(F)(F)F)c1)C(C)C`, for which the GI50 is 2.51 µM in assay [1]; 3.15 µM in assay [2]; 4.94 µM in assay [3]; 5.48 µM in assay [4]; 2.16 µM in assay [5]; 2.05 µM in assay [6]. The GI50 in [7] was 1.88 µM; in assay [8] it was 2.59 µM; in [9], 3.14 µM; in assay [10], 8.58 µM. The TGI in assay [1] is 7.9 µM; in assay [2], more than 10 µM; in [3], more than 10 µM; in assay [4] it was more than 10 µM; in [5], 5.22 µM; in assay [6], 4.99 µM. Further, the TGI in [7] is 3.97 µM; in [8], 8.25 µM; in [9], more than 10 µM; in assay [10] it was more than 10 µM.

Take `CCOc1ccc(Nc2nc(-c3c(C)nc4ncccn34)cs2)cc1`: the GI50 was 0.0268 µM in [1]; 0.0291 µM in [2]; less than 0.01 µM in assay [3]; 0.0362 µM in assay [4]; 0.0401 µM in assay [5]; 0.0673 µM in [6]. Further, the GI50 in assay [7] is 0.0769 µM; in [8], 0.0218 µM; in assay [9], 1.04 µM; in assay [10] it was less than 0.01 µM. Besides, the TGI in assay [1] worked out at 14.9 µM; in assay [2] it was 17.3 µM; in assay [3], 0.0404 µM; in assay [4], 13.4 µM; in assay [5], 15.9 µM; in assay [6] it was 20.7 µM. Also, the TGI in assay [7] came to 28.2 µM; in assay [8] it was 16 µM; in assay [9], 17.1 µM; in assay [10], 12.8 µM.

As to `O=C1CCS/C(=N/S(=O)(=O)c2ccc(N3N=C4c5ccccc5CC4C3c3cccs3)cc2)N1Cc1ccccc1` (configuration not stated), the GI50 was 26.2 µM in assay [1]; 28 µM in [2]; 36.8 µM in assay [3]; 35.9 µM in [4]; 19.2 µM in assay [5]; 42.1 µM in [6]. Moreover, the GI50 in assay [7] was 18.5 µM; in assay [8], 24 µM; in assay [9], 45.6 µM; in assay [10], 16.7 µM. For the same compound, the TGI was 75.2 µM in assay [1]; 75.7 µM in [2]; more than 100 µM in [3]; 83.7 µM in assay [4]; 39.3 µM in [5]; more than 100 µM in [6]. For the same compound, the TGI in assay [7] is 38.3 µM; in assay [8], 84.6 µM; in assay [9], more than 100 µM; in assay [10], 32.3 µM.

With `Nc1ncnc2c1nc(Cl)n2C1OC(CO)C(O)C1O` (configuration not stated), the TGI is more than 100 µM in [1]; more than 25.5 µM in assay [2]; more than 100 µM in [3]; more than 66.2 µM in assay [4]; more than 100 µM in assay [5]; more than 100 µM in [6]. The TGI was more than 100 µM in [7], more than 100 µM in assay [8], 8.15 µM in assay [9] and more than 100 µM in assay [10].

For the compound `O=C(Oc1ccc2c(c1)CN(Cc1ccccc1)CO2)c1ccccc1`, the TGI in [1] is 34.1 µM; in [2], more than 100 µM; in assay [3] it was 31 µM; in assay [4] it was 28.2 µM; in assay [5], 32.9 µM; in assay [6] it was 41.2 µM. The TGI was determined as 34.1 µM in [7], 56.4 µM in [8], 70 µM in assay [9] and 30.5 µM in [10].

Consider `Fc1ccc(-c2nn3c(COc4ccc(Cl)cc4)nnc3s2)cc1Oc1ccccc1`, for which the GI50 is 24.8 µM in assay [1]; 22.4 µM in assay [2]; 41.8 µM in assay [3]; 10.1 µM in [4]; 21.2 µM in assay [5]; 37 µM in assay [6]. Besides, the GI50 is more than 46.1 µM in [7], 48.4 µM in assay [8], 28 µM in assay [9] and 32.4 µM in assay [10]. Moreover, the TGI in [1] is 55.3 µM; in assay [2] it was 74.4 µM; in assay [3] it was more than 61.8 µM; in assay [4], 21.7 µM; in [5] it was 66.3 µM; in assay [6] it was more than 100 µM. Also, the TGI in assay [7] was more than 67 µM; in assay [8], more than 100 µM; in [9], more than 66.3 µM; in assay [10], more than 63.4 µM.

Regarding `Nc1nc(=S)c2[nH]cnc2[nH]1`, the GI50 in [1] is 0.716 µM and 1.4 µM and 1.85 µM; in assay [2], 0.227 µM and 0.314 µM and 0.488 µM; in [3] it was 0.998 µM and 2.35 µM and 2.52 µM; in [5], 0.374 µM and 0.432 µM and 0.91 µM; in assay [6] it was 1.94 µM and 6.07 µM; in assay [8], 0.564 µM and 3.6 µM and 1.18 µM. Besides, the GI50 in assay [9] was 0.43 µM and 0.964 µM and 1.25 µM; in assay [10], 0.295 µM and 0.376 µM and 1.26 µM. Moreover, the TGI in [3] is 5.68 µM [middle of 4 runs]; in [4] it was 4.44 µM and 26.8 µM and 32.4 µM; in assay [6] it was 28.8 µM and 162 µM; in assay [7] it was > 100 µM and 171 µM and > 250 µM.
